Like-named read-outs stand apart in the source and are kept apart here.
Tests used:
[1] = Pharmacokinetic profile in mice after I.V. injection (LC-MS/MS of plasma, brain, liver, kidney); type: in vivo, mouse; settings: for AUC(0-t): read-out: AUC24h; for concentration at 24 h: read-out: Clast; for k el: read-out: Ke (converted)
Description: The wild-type group housed male C57BL/6 mice 10–12 weeks of age were used for all in vivo, ex vivo, and behavioral studies. This age range was selected to be consistent with previous studies of conditional Cdk5 knockout mice ([Plattner et al., 2015]). 25–106 was administered in a 20-fold dose range intravenously (I.V.) at 10, 50, 100, and 200 mg/kg for pharmacokinetic studies. This delivery mode was used as I.V. injections to avoid first-pass drug metabolism observed using other injection methods ([Pond and Tozer, 1984]). […] All animal experiments were performed under approved protocols by the University of Alabama at Birmingham (UAB) Institutional Animal Care and Use Committees and in accordance with the guidelines of the Animal Welfare Act and the Guide for the Care and Use of Laboratory Animals.
A quantitative determination of 25–106 in mouse plasma and tissue homogenate was accomplished by the use of protein precipitation and high-performance liquid chromatography with tandem mass spectrometry detection (LC-MS/MS). 5-(N,N-hexamethylene) amiloride (HMA) was used as the internal standard (IS). 25–106 and IS were typically extracted from 50 µL of mouse plasma or tissue homogenate using protein precipitation with methanol. The extracts were analyzed by reverse-phase chromatography using an ACE Excel 3 C18-PFP column under isocratic conditions at a flow rate of 500 μL/min. The column temperature was maintained at 40°C. The mobile phase A consisted of 0.1% formic acid in water, and the mobile phase B was acetonitrile. A triple–quadrupole mass spectrometer (AB Sciex 5,000) equipped with TurboV IonSpray operating in positive-ion mode was used. Column effluents were analyzed by multiple reaction monitoring (MRM). The precursor/product transitions are 346.1 to 137.1 m/z for 25–106 and 312.37 to 129.5 m/z for IS. The calibration curve was fit using weighted (1/x^2) linear regression analysis of the 25–106/IS peak area ratio vs. the 25–106 concentration from 1.0–80.0 ng/ml (ng/g for tissue) for the low curve and 80.0–10,000 ng/ml (ng/g for tissue) for the high curve. The concentrations of incurred and quality control samples were calculated with the same regression analysis, and the results were reported in ng/mL (plasma) or ng/g (tissue) of 25–106.
To assess the pharmacokinetic and pharmacodynamic parameters of 25–106 in vivo, we utilized the LC-MS/MS detection method established above (see Figure 5). The mice were administered IV injections of 25–106 doses of 10, 50, 100, or 200 mg/kg. The animals were euthanized, and organs were harvested at 1, 2, 6, and 24 h post injection. Within the same experiment, tissues were used for biochemical analysis of 25–106 effects on Cdk5 activity (see Figures 3A, B).

C57BL/6 mice = experiment: Tail suspension test; type: in vivo, mouse; settings: 50 mg/kg, 6 h after injection
Description: The tail suspension test was conducted as previously described ([Plattner et al., 2015]). The mice were suspended by their tails for a total duration of 6 min and video-recorded. Post-hoc blind experimentalists quantified the duration and latency of immobility for each randomized video. The average quantitative determents of each observer were averaged to generate the final analytic values of motion.
Next, we tested the effects of 25–106 on mouse performance in the tail-suspension test to measure depressive-like phenotypes in mice ([Cryan et al., 2005]; [Can et al., 2012]). […] Thus, 25–106 modulated several neurobehavioral behaviors that have previously been linked to Cdk5.

[2] = male, C57BL/6, mouse, iv, brain, 10 mg/kg I.V.
[3] = male, C57BL/6, mouse, iv, brain, 50 mg/kg I.V.
[4] = male, C57BL/6, mouse, iv, brain, 100 mg/kg I.V.
[5] = male, C57BL/6, mouse, iv, brain, 200 mg/kg I.V.
[6] = male, C57BL/6, mouse, iv, kidney, 50 mg/kg I.V.
[7] = male, C57BL/6, mouse, iv, kidney, 100 mg/kg I.V.
[8] = male, C57BL/6, mouse, iv, kidney, 200 mg/kg I.V.
[9] = male, C57BL/6, mouse, iv, plasma, 10 mg/kg I.V.
[10] = male, C57BL/6, mouse, iv, plasma, 50 mg/kg I.V.
[11] = male, C57BL/6, mouse, iv, plasma, 100 mg/kg I.V.
[12] = male, C57BL/6, mouse, iv, plasma, 200 mg/kg I.V.

detectability in the brain and plasma ([1]; 24 h after injection, I.V.): remaining detectable
demethylated metabolites detected ([1]; LC-MS/MS, mice): No demethylated metabolite structures
V ([1]; brain, 10 mg/kg I.V.): 77.39 ± 25.63 L
V ([1]; brain, 50 mg/kg I.V.): 151.24 ± 58.36 L
CL ([1]; brain, 50 mg/kg I.V., 50 mg/kg): 16.57 ± 4.19 L/h
V ([1]; brain, 100 mg/kg I.V.): 126.99 ± 46.68 L
CL ([1]; brain, 100 mg/kg I.V., 100 mg/kg): 17.75 ± 6.77 L/h
V ([1]; brain, 200 mg/kg I.V.): 76.07 ± 73.66 L
Clast ([1]; kidney, 10 mg/kg I.V.): 0.163 ± 0.04167 µg/mL
Clast ([1]; kidney, 50 mg/kg I.V.): 0.10933 ± 0.0429 µg/mL
V ([1]; kidney, 50 mg/kg I.V.): 78.88 ± 16.88 L
Clast ([1]; kidney, 100 mg/kg I.V.): 0.11988 ± 0.05183 µg/mL
V ([1]; kidney, 100 mg/kg I.V.): 172.86 ± 89.05 L
Clast ([1]; kidney, 200 mg/kg I.V.): 0.14645 ± 0.08711 µg/mL
V ([1]; kidney, 200 mg/kg I.V.): 163.98 ± 55.79 L
Clast ([1]; liver, 10 mg/kg I.V.): 0.08518 ± 0.0326 µg/mL
Clast ([1]; liver, 50 mg/kg I.V.): 0.25273 ± 0.20006 µg/mL
Clast ([1]; liver, 100 mg/kg I.V.): 0.1509 ± 0.10392 µg/mL
Clast ([1]; liver, 200 mg/kg I.V.): 0.3109 ± 0.24748 µg/mL
clearance ([1]; male, C57BL/6, mouse, brain, iv, 10 mg/kg, 10 mg/kg I.V.): 66.3 mL/min
Cmax ([1]; male, C57BL/6, mouse, brain, iv, 10 mg/kg, brain, 10 mg/kg I.V., read-out: Cmax): 101 ± 23.6 ng/g
clearance ([1]; male, C57BL/6, mouse, brain, iv, 50 mg/kg, 50 mg/kg I.V.): 275 mL/min
Cmax ([1]; male, C57BL/6, mouse, brain, iv, 50 mg/kg, brain, 50 mg/kg I.V., read-out: Cmax): 118 ± 76.7 ng/g
clearance ([1]; male, C57BL/6, mouse, brain, iv, 100 mg/kg, 100 mg/kg I.V.): 295 mL/min
Cmax ([1]; male, C57BL/6, mouse, brain, iv, 100 mg/kg, brain, 100 mg/kg I.V., read-out: Cmax): 377 ± 289 ng/g
clearance ([1]; male, C57BL/6, mouse, brain, iv, 200 mg/kg, 200 mg/kg I.V.): 188 mL/min
Cmax ([1]; male, C57BL/6, mouse, brain, iv, 200 mg/kg, brain, 200 mg/kg I.V., read-out: Cmax): 669 ± 316 ng/g
half-life [1, 2]: 17.2 ± 10.4 h
AUC(0-t) [1, 2]: 0.08 ± 0.02 µg·h/mL
concentration at 24 h [1, 2]: 0.00227 ± 0.00144 µg/mL
k el [1, 2]: 1.67e-05 s⁻¹
half-life [1, 3]: 6.23 ± 1.12 h
AUC(0-t) [1, 3]: 0.09 ± 0.03 µg·h/mL
concentration at 24 h [1, 3]: 0.00273 ± 0.00175 µg/mL
k el [1, 3]: 3.06e-05 s⁻¹
half-life [1, 4]: 5.03 ± 0.69 h
AUC(0-t) [1, 4]: 0.18 ± 0.07 µg·h/mL
concentration at 24 h [1, 4]: 0.00288 ± 0.00116 µg/mL
k el [1, 4]: 3.89e-05 s⁻¹
half-life [1, 5]: 4.39 ± 1.19 h
AUC(0-t) [1, 5]: 0.96 ± 0.86 µg·h/mL
concentration at 24 h [1, 5]: 0.014 ± 0.0145 µg/mL
k el [1, 5]: 4.72e-05 s⁻¹
AUC(0-t) ([1]; male, C57BL/6, mouse, iv, kidney, 10 mg/kg I.V.): 6.3 ± 1.69 µg·h/mL
half-life [1, 6]: 10.2 ± 2.99 h
AUC(0-t) [1, 6]: 7.64 ± 1.28 µg·h/mL
k el [1, 6]: 1.94e-05 s⁻¹
half-life [1, 7]: 13 ± 4.56 h
AUC(0-t) [1, 7]: 9.42 ± 3.06 µg·h/mL
k el [1, 7]: 1.67e-05 s⁻¹
half-life [1, 8]: 9.65 ± 5.34 h
AUC(0-t) [1, 8]: 14.4 ± 4.63 µg·h/mL
k el [1, 8]: 2.5e-05 s⁻¹
AUC(0-t) ([1]; male, C57BL/6, mouse, iv, liver, 10 mg/kg I.V.): 3.08 ± 1.01 µg·h/mL
AUC(0-t) ([1]; male, C57BL/6, mouse, iv, liver, 50 mg/kg I.V.): 2.76 ± 0.98 µg·h/mL
AUC(0-t) ([1]; male, C57BL/6, mouse, iv, liver, 100 mg/kg I.V.): 3.32 ± 1.28 µg·h/mL
AUC(0-t) ([1]; male, C57BL/6, mouse, iv, liver, 200 mg/kg I.V.): 5.44 ± 1.95 µg·h/mL
half-life [1, 9]: 6.5 ± 2.36 h
AUC(0-t) [1, 9]: 5.71 ± 2.26 µg·h/mL
concentration at 24 h [1, 9]: 0.0163 ± 0.007 µg/mL
k el [1, 9]: 3.06e-05 s⁻¹
half-life [1, 10]: 7.48 ± 0.41 h
AUC(0-t) [1, 10]: 6.93 ± 0.93 µg·h/mL
concentration at 24 h [1, 10]: 0.0697 ± 0.0162 µg/mL
k el [1, 10]: 2.5e-05 s⁻¹
half-life [1, 11]: 8.37 ± 1.77 h
AUC(0-t) [1, 11]: 8.38 ± 0.78 µg·h/mL
concentration at 24 h [1, 11]: 0.0792 ± 0.016 µg/mL
k el [1, 11]: 2.5e-05 s⁻¹
half-life [1, 12]: 11 ± 6.38 h
AUC(0-t) [1, 12]: 12 ± 1.74 µg·h/mL
concentration at 24 h [1, 12]: 0.149 ± 0.0941 µg/mL
k el [1, 12]: 2.22e-05 s⁻¹
Cmax ([1]; male, C57BL/6, mouse, kidney, iv, 10 mg/kg, kidney, 10 mg/kg I.V., read-out: Cmax): 2950 ng/g
clearance ([1]; male, C57BL/6, mouse, kidney, iv, 50 mg/kg, 50 mg/kg I.V.): 92.5 mL/min
Cmax ([1]; male, C57BL/6, mouse, kidney, iv, 50 mg/kg, kidney, 50 mg/kg I.V., read-out: Cmax): 1190 ng/g
clearance ([1]; male, C57BL/6, mouse, kidney, iv, 100 mg/kg, 100 mg/kg I.V.): 154 mL/min
Cmax ([1]; male, C57BL/6, mouse, kidney, iv, 100 mg/kg, kidney, 100 mg/kg I.V., read-out: Cmax): 2580 ng/g
clearance ([1]; male, C57BL/6, mouse, kidney, iv, 200 mg/kg, 200 mg/kg I.V.): 227 mL/min
Cmax ([1]; male, C57BL/6, mouse, kidney, iv, 200 mg/kg, kidney, 200 mg/kg I.V., read-out: Cmax): 4660 ng/g
Cmax ([1]; male, C57BL/6, mouse, liver, iv, 10 mg/kg, liver, 10 mg/kg I.V., read-out: Cmax): 1760 ± 526 ng/g
Cmax ([1]; male, C57BL/6, mouse, liver, iv, 50 mg/kg, liver, 50 mg/kg I.V., read-out: Cmax): 513 ± 22 ng/g
Cmax ([1]; male, C57BL/6, mouse, liver, iv, 100 mg/kg, liver, 100 mg/kg I.V., read-out: Cmax): 868 ± 378 ng/g
Cmax ([1]; male, C57BL/6, mouse, liver, iv, 200 mg/kg, liver, 200 mg/kg I.V., read-out: Cmax): 2810 ng/g
clearance ([1]; male, C57BL/6, mouse, plasma, iv, 10 mg/kg, 10 mg/kg I.V.): 1 mL/min
Cmax ([1]; male, C57BL/6, mouse, plasma, iv, 10 mg/kg, plasma, 10 mg/kg I.V., read-out: Cmax): 2.57 µg/mL
clearance ([1]; male, C57BL/6, mouse, plasma, iv, 50 mg/kg, 50 mg/kg I.V.): 3.33 mL/min
Cmax ([1]; male, C57BL/6, mouse, plasma, iv, 50 mg/kg, plasma, 50 mg/kg I.V., read-out: Cmax): 1.38 µg/mL
clearance ([1]; male, C57BL/6, mouse, plasma, iv, 100 mg/kg, 100 mg/kg I.V.): 5.33 mL/min
Cmax ([1]; male, C57BL/6, mouse, plasma, iv, 100 mg/kg, plasma, 100 mg/kg I.V., read-out: Cmax): 2.58 µg/mL
clearance ([1]; male, C57BL/6, mouse, plasma, iv, 200 mg/kg, 200 mg/kg I.V.): 7.17 mL/min
Cmax ([1]; male, C57BL/6, mouse, plasma, iv, 200 mg/kg, plasma, 200 mg/kg I.V., read-out: Cmax): 2.32 µg/mL
V ([1]; plasma, 10 mg/kg I.V.): 0.49 ± 0.08 L
V ([1]; plasma, 50 mg/kg I.V.): 2.14 ± 0.34 L
V ([1]; plasma, 100 mg/kg I.V.): 3.85 ± 0.55 L
Cmax ([1]; plasma, 100 mg/kg I.V., 100 mg/kg): 2,577.50 ± 1,004.73 Ng/ml
V ([1]; plasma, 200 mg/kg I.V.): 6.12 ± 2.08 L
Cmax ([1]; plasma, 200 mg/kg I.V., 200 mg/kg): 2,322.50 ± 972.71 Ng/ml
Compound: COc1cc(CC(=O)Nc2cc(C3CCC3)[nH]n2)cc(OC)c1OC [25–106, N-(5-cyclobutyl-1H-pyrazol-3-yl)-2-(3,4,5-trimethoxyphenyl)acetamide]
latency to immobility vs. vehicle (C57BL/6 mice): increased latency
total immobility time vs. vehicle (C57BL/6 mice): reduction in total immobility time
